PMC13492380, “Dissecting Structural and Functional Determinants of Microtubules Stabilization through Guided Chemical Modulation” (Journal of Medicinal Chemistry, 2026)
Like-named read-outs stand apart in the source and are kept apart here.

Legend:
[1] = system: kinesin-1 light chain KLC1 (anterograde transport) in SH-SY5Y cells; assay: Cy5-KBP kinesin binding probe tracking, live-cell imaging; format: cell-based, human; conditions: for Cy5-KBP Distance, normalized to control / Cy5-KBP Speed, normalized to control: 1 μM PTX or 2.5 μM FTX2, 1a or 1b, mean ± SEM
Text: Building on our ability to chemically modulate MT structure, we next explored how these changes influence signaling patterns involved in MAPs interactions. Given that MTs are key players in intracellular transport – guiding organelles, vesicles and chromosomes via molecular motors like dyneins and kinesins – we assessed the impact of our compounds on transport dynamics in neuroblastoma SH-SY5Y cells. We combined live-cell imaging with previously developed tracking peptides (Figure A): Cy5-DBP, which encompasses the sequence that specifically recognizes Dynein Light Chain LC8 (retrograde transport), and Cy5-KBP, with a sequence that binds to the tetratricopeptide repeat of the kinesin-1 light chain KLC1 (anterograde transport). […] However, this was for a short incubation period (1 to 2.5 h, including imaging time) to avoid mitotic arrest or compromise cell viability. We then assessed particle behavior by measuring mean track displacement and mean track velocity.
Cy5-KBP and Cy5-DBP tracking peptides were synthesized at CIB-Margarita Salas (CSIC), following a published protocol. Briefly, the peptide chains were assembled via solid phase peptide synthesis (SPPS) using fluorenylmethyloxycarbonyl (Fmoc) as N-terminal protecting group and, subsequently labeled with the organic dye cyanine 5 (Cy5) via a maleimide–thiol reaction between the N-terminal cysteine residues of the peptides and the commercially available Cy5-maleimide. The final peptides were purified via reverse phase HPLC, dissolved in DMSO to a final 2.5 mM concentration and stored in small aliquots at −20 °C. SH-SY5Y cells were seeded into μ-Slide 8-wells ibiTreat plates (ibidi, flat polymer coverslip-bottom, tissue culture treated) at a concentration of 35,000 cells/well and incubated for 48 h at 37 °C and 5% CO2. […] After this time, the culture medium was replaced by the drug working solution containing either Cy5-KBP or Cy5-DBP, and the plate was incubated for an additional 15 min at 37 °C and 5% CO2. Then, the culture medium was replaced with drug working solution without labeled peptide and the cells were imaged using a confocal laser scanning microscope Leica TCS SP8 with a 63x oil immersion objective that included a humidified incubation chamber, a CO2 controller and a heating unit. Cy5 dye was excited at 635 nm and the fluorescence emission was collected at 645–690 nm. Images were recorded every 1.793 s for 3 min as 2-layer-z-stacks. For each condition, two to three different fields were imaged in two separate experiments.
Single-peptide trajectories were tracked with the TrackMate plugin from the Fiji package software (https://imagej.net/TrackMate). Particles with an estimated blob diameter of 1–1.5 μm were detected using the Laplacian of Gaussian (LoG) detector and linked with the Linear motion LAP tracker. Only spots that were at a maximum distance of 2 μm were linked. Trajectories with less than 6 spots were discarded since they were probably artifactual, and track mean displacement and track mean velocity were calculated and normalized to control cells. Data were further analyzed with MATLAB to perform a Mean Square Displacement (MSD) analysis to determine the mode of displacement of the peptides followed over time. Briefly, for each trajectory the MSD function was calculated and its log–log representation fitted with a linear function (log(MSD(τ)) = […] x log(τ) + C). MSD curves with an R^2 coefficient <0.8 were removed. The slope (α) of each MSD curve determines the motion type of each particle and particles were classified into: constrained particles (CM) α < 1, Brownian particles (BM) α = 1, and transported particles (TM) α > 1. Two independent experiments were performed using three biological replicates (N = 6). Statistical analyses of normalized track mean displacement and track mean velocity were performed using an unpaired t test with Welch’s correction in GraphPad Prism 8 software. […]

[2] = system: Kb-3.1 cells (HeLa subclone); assay: MTT cytotoxicity assay, Kb-3.1; format: cell-based; conditions: Homo sapiens, read-out: Cytotoxicity IC50 Kb-3.1
Procedure: Antiproliferative assays were performed as described.

Compound | Cy5-KBP Distance, normalized to control [1] | Cy5-KBP Speed, normalized to control [1] | effect on Cy5-KBP particle tracking ([1]; 2.5 μM) | IC50 ([2]; KB 3-1, 48 h) [nM] | reduction in kinesin binding probe velocity ([1]; 2.5 μM) [%] | IC50 ([2]; KB 3-1, MTT, 48 h, mean ± SEM) [nM]
CC(=O)OC1C(=O)C2(C)C(OC(=O)CCCCC(=O)OC3CCc4ccccc43)CC3OCC3(OC(C)=O)C2C(OC(=O)c2ccccc2)C2(O)CC(OC(=O)C(O)C(NC(=O)c3ccccc3)c3ccccc3)C(C)=C1C2(C)C (stereo not drawn) [1a, 7-O-(6″-O-(2‴,3‴-Dihydroinden-1‴-yl)hexanedioyl) Paclitaxel] | 0.92 ± 0.01 ratio to control | 0.95 ± 0.01 ratio to control | did not affect particle tracking | 280 ± 30 |  | 
COc1ccc2c(c1)CC(NC(=O)CCCCCCCC(=O)OC1CC3OCC3(OC(C)=O)C3C(OC(=O)c4ccccc4)C4(O)CC(OC(=O)C(O)C(NC(=O)c5ccccc5)c5ccccc5)C(C)=C(C(OC(C)=O)C(=O)C13C)C4(C)C)CC2 [1b, 7-O-((S)-9″-(7‴-Methoxy-1‴,2‴,3‴,4‴-tetrahydronaphthalen-2‴-yl)amino) −9″-oxononanoyl) Paclitaxel] | 0.85 ± 0.01 ratio to control | 0.87 ± 0.01 ratio to control |  |  | ~16 | 150 ± 20
CC(=O)O[C@H]1C(=O)[C@]2(C)[C@@H](OC(=O)[C@H](C)NC(=O)c3ccc(-c4c5cc(F)c(=O)cc-5oc5cc(O)c(F)cc45)c(C(=O)O)c3)C[C@H]3OC[C@@]3(OC(C)=O)[C@H]2[C@H](OC(=O)c2ccccc2)[C@]2(O)C[C@H](OC(=O)[C@H](O)[C@@H](NC(=O)c3ccccc3)c3ccccc3)C(C)=C1C2(C)C [FTX2, Flutax2] | 0.910 ± 0.003 ratio to control | 0.85 ± 0.01 ratio to control |  |  | ~14 | 
CC(=O)O[C@H]1C(=O)[C@@]2(C)[C@H]([C@H](OC(=O)c3ccccc3)[C@]3(O)C[C@H](OC(=O)[C@H](O)[C@@H](NC(=O)c4ccccc4)c4ccccc4)C(C)=C1C3(C)C)[C@]1(OC(C)=O)CO[C@@H]1C[C@@H]2O [PTX, Paclitaxel] |  |  |  |  |  | 2.4 ± 0.2
